Test results as given in BindingDB's records for patent US10150764 (Epizyme, 2018).

Tests used:
[1] = target: Histone-lysine N-methyltransferase EZH2 (Homo sapiens, UniProt Q15910); experiment: Wild-Type PRC2 Enzyme Assay
Experimental: (§1) The assays were performed in a buffer consisting of 20 mM bicine (pH=7.6), 0.5 mM DTT, 0.005% BSG, 100 mM KCl and 0.002% Tween20, prepared on the day of use. […] DMSO (1 μL) was added to columns 11, 12, 23, 24, rows A-H for the maximum signal control, and SAH, a known product and inhibitor of PRC2 (1 μL) was added to columns 11, 12, 23, 24, rows I-P for the minimum signal control. A cocktail (40 μL) containing the wild-type PRC2 enzyme and chicken erythrocyte oligonucleosome was added by Multidrop Combi (Thermo). The compounds were allowed to incubate with PRC2 for 30 min at 25° C., then a cocktail (10 μL) containing a mixture of non-radioactive and 3H-SAM was added to initiate the reaction (final volume=51 μL). […] The assay was stopped by the addition of non-radioactive SAM (10 μL) to a final concentration of 600 μM, which dilutes the 3H-SAM to a level where its incorporation into the chicken erythrocyte olignonucleosome substrate is no longer detectable. […] The plates were then read in a PerkinElmer TopCount platereader to measure the quantity of 3H-labeled chicken erythrocyte oligonucleosome bound to the Flashplate surface, measured as disintegrations per minute (dpm) or alternatively, referred to as counts per minute (cpm).

[2] = target: Histone-lysine N-methyltransferase EZH2 [Y641F] (Homo sapiens, UniProt Q15910, Y641F); experiment: Wild-Type PRC2 Enzyme Assay
Histone-lysine N-methyltransferase EZH2 [Y641F], sequence (Q15910 whole entry Y641F): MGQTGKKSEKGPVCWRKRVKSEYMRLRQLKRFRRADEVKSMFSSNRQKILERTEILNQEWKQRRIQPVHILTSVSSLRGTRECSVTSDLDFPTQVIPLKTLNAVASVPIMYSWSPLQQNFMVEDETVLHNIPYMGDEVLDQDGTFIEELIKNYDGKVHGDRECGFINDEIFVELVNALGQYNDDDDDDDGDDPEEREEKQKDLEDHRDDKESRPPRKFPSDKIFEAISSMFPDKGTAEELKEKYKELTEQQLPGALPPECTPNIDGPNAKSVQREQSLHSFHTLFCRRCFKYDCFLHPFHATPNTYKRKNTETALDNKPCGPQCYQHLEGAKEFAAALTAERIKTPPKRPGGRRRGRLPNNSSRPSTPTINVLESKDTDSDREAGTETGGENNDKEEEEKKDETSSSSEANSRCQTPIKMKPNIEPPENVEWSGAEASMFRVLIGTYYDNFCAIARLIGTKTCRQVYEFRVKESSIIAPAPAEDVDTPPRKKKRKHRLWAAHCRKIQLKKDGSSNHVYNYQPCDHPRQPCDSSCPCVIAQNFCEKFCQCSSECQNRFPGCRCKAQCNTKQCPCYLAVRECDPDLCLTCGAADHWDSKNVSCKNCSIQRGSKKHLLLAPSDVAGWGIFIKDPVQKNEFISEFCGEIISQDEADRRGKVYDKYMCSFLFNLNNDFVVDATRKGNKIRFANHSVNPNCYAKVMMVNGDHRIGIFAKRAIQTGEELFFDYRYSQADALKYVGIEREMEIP
Experimental: as §1

Histone-lysine N-methyltransferase EZH2, sequence (Q15910 whole entry): as the sequence (Q15910 whole entry Y641F) above, with F641Y counted along it

## CCN(c1cc(Cl)cc(C(=O)NCc2c(C)cc3cc[nH]n3c2=O)c1C)[C@H]1CC[C@H](N(C)C)CC1 [US10150764, Compound 2]
[1]
  IC50: 15.1 µM
[2]
  IC50: 8.35 µM
